According to ChEMBL document CHEMBL1201862, “PubChem BioAssay data set” (2004):
The source made the active and inactive calls.

How the values were obtained:
cells = type: functional
[1] = inhibition of ARNT PAS-B/TACC3 complex formation – biochemical, AlphaScreen, cherry-picked samples, confirmation (AID 651703); type: functional, Homo sapiens;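 also: His-tagged ARNT PAS-B domain paired with GST-TACC3 E629A dimer coactivator fragment; potency of inhibitors that break up the complex and lower AlphaScreen signal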
Melanocortin receptor 4 = Melanocortin receptor 4 (Homo sapiens, UniProt P32245); assay: inhibitors of MC4R cAMP signaling – cell-based, TR-FRET, biased antagonists, dose response (AID 602298); type: functional;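 also: antagonist potency against agonist-stimulated cAMP production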
Melanocortin receptor 4, sequence (P32245 whole entry): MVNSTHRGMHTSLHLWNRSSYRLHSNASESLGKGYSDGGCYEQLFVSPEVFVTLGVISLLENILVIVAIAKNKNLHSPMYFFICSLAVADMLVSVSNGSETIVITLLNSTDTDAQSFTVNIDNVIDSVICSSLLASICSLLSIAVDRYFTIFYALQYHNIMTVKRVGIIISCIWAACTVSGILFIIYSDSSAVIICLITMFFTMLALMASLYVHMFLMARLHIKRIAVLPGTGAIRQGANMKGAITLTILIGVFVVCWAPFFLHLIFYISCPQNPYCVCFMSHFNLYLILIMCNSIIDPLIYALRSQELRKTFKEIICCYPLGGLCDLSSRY

[2] = cAMP pathway inhibition in counterscreen cell line – TR-FRET cAMP detection, counter-screen for MC4R biased antagonist project, dose response (AID 602305); type: functional, cell-based;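 also: U2OS cells stimulated with forskolin near its EC80 as the cAMP inducer; potency is for inhibition of forskolin-stimulated cAMP signaling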
Beta Lactamase = Beta Lactamase (Pseudomonas aeruginosa, UniProt Q932Y6);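 also: confirmatory high-throughput screen measuring VIM-2 metallo-beta-lactamase inhibition by epi-absorbance in dose response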
Beta Lactamase, sequence (Q932Y6 whole entry): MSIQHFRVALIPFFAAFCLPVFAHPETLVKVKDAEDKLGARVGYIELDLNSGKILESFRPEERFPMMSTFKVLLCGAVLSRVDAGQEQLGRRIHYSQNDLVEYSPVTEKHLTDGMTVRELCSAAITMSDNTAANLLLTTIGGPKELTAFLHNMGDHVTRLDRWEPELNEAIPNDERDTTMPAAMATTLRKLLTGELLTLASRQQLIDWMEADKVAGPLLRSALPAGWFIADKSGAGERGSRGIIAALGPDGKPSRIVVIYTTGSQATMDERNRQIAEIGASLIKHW

Beta-lactamase [3] = molecular target: Beta-lactamase (Pseudomonas aeruginosa, UniProt Q79MP6);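 also: biochemical dose-response test of metallo-beta-lactamase enzyme inhibition, read out by epi-absorbance; purified recombinant IMP-1 metallo-beta-lactamase with nitrocefin as substrate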
Beta-lactamase (Pseudomonas aeruginosa, UniProt Q79MP6), sequence (Q79MP6 whole entry): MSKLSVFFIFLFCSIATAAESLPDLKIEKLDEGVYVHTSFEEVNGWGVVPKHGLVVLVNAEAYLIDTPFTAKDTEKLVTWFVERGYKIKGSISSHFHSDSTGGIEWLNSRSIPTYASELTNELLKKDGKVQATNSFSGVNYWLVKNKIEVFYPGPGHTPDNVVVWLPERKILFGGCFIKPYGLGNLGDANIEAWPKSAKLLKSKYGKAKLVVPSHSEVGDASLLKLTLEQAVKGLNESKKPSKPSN

Beta-lactamase [4] = molecular target: Beta-lactamase (Salmonella choleraesuis (strain SC-B67), UniProt Q5J463)
Beta-lactamase (Salmonella choleraesuis (strain SC-B67), UniProt Q5J463), sequence (Q5J463 whole entry): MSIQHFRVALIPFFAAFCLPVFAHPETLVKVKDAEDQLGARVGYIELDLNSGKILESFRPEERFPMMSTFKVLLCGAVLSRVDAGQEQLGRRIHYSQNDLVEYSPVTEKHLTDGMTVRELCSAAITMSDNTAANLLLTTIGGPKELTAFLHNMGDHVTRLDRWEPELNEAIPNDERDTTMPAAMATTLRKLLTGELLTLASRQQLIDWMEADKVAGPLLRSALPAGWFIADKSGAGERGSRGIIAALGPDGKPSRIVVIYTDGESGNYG

[5] = molecular target: 26S proteasome non-ATPase regulatory subunit 14 (Homo sapiens, UniProt O00487); assay: inhibition of proteasome subunit RPN11 – biochemical, fluorescence polarization, uHTS hits, confirmation (AID 602368); type: functional
26S proteasome non-ATPase regulatory subunit 14, sequence (O00487 whole entry): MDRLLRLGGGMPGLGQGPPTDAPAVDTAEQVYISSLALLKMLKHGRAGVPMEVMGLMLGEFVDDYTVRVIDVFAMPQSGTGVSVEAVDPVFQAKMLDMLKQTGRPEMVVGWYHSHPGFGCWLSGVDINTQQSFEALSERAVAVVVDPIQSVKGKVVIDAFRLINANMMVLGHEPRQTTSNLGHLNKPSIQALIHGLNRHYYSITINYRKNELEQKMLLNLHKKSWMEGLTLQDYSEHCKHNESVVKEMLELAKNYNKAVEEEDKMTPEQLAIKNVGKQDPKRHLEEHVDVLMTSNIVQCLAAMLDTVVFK

[6] = molecular target: 72 kDa type IV collagenase (Homo sapiens, UniProt P08253); assay: Dose Response validation of uHTS RPN11 inhibitor hits using a MMP-2 Fluorescence assay.; type: functional
72 kDa type IV collagenase, sequence (P08253 whole entry): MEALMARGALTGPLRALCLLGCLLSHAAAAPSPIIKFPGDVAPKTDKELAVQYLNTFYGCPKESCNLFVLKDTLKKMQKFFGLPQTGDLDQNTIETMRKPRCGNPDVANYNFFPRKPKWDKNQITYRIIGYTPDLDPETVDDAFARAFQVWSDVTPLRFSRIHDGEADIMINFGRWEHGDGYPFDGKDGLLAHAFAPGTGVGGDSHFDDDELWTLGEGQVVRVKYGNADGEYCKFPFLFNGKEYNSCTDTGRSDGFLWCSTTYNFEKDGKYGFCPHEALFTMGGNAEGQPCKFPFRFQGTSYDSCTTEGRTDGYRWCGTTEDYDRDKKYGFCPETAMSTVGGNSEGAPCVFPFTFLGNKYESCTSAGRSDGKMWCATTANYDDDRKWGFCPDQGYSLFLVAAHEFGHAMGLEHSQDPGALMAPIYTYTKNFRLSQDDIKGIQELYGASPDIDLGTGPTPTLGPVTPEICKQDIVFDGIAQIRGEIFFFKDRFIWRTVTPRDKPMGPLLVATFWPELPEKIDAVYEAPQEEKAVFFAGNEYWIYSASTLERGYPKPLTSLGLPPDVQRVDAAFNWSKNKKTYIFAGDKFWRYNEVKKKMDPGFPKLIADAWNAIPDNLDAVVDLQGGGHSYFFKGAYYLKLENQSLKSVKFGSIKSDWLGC

Prothrombin = Prothrombin (Bos taurus, UniProt P00735); assay: thrombin protease inhibitors – biochemical, fluorescence polarization, uHTS hits, dose response (AID 602369); type: functional
[7] = molecular target: T1, Low molecular weight phosphotyrosine protein phosphatase (Homo sapiens, UniProt P24666); type: functional; conditions: read-out: IC50_Mean
T1 sequence (P24666 whole entry): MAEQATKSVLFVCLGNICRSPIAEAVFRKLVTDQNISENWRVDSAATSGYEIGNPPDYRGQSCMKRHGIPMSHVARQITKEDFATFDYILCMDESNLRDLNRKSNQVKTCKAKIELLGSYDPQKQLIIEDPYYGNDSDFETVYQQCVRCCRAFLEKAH

[8] = molecular target: T1, Low molecular weight phosphotyrosine protein phosphatase; type: functional; conditions: read-out: IC50_Mean; remark: listed apart in the source
[9] = molecular target: T2, ATP-dependent translocase ABCB1 (Homo sapiens, UniProt P08183); assay: inhibition of BCRP-mediated JC-1 efflux – Ig-MXP3 cells, flow cytometry, set 2, dose response (AID 504566); type: functional; conditions: read-out: EC50_MICROM_;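 also: flow cytometry median green fluorescence of retained JC-1 dye; potency of efflux pump inhibition measured as rising substrate retention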
T2 sequence (P08183 whole entry): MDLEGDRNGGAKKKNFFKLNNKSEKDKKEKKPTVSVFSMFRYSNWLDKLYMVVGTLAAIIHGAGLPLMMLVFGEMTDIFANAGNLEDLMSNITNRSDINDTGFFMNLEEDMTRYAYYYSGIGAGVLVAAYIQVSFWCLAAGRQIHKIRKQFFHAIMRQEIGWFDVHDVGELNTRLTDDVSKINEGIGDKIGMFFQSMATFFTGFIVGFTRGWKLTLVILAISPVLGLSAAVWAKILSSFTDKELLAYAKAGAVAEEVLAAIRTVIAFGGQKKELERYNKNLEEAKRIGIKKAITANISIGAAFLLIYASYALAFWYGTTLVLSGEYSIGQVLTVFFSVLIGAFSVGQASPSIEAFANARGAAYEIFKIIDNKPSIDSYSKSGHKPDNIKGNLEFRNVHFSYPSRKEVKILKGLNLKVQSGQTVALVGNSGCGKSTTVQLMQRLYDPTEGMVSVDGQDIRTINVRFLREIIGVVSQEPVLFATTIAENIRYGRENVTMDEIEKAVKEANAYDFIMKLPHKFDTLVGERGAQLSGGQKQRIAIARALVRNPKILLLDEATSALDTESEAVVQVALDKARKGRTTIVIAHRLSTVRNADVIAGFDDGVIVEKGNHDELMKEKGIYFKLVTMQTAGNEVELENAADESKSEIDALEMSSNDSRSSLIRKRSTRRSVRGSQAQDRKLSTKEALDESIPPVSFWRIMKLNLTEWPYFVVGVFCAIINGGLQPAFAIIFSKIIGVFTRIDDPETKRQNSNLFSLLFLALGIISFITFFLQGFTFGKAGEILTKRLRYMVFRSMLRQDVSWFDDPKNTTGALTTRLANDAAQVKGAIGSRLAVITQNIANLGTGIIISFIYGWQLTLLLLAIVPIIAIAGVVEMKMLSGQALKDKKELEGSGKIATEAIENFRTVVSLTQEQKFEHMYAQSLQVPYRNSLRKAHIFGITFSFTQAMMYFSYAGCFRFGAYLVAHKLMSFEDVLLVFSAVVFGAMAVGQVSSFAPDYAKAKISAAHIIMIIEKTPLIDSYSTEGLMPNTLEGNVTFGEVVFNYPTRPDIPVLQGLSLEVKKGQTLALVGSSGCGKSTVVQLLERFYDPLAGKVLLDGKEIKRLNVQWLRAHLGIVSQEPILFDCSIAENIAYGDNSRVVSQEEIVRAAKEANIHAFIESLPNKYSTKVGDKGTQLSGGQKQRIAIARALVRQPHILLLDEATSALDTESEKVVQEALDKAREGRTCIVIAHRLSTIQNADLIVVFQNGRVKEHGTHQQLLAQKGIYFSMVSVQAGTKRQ

[10] = molecular target: T2, ATP-dependent translocase ABCB1; assay: P-gp JC-1 efflux blockade concentration-response – Jurkat-DNR cells, flow cytometry, set 2, dose response (AID 504569); type: functional; conditions: read-out: EC50_MICROM_;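 also: potency of pump inhibitors that raise cellular JC-1 green fluorescence up to the nicardipine level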
[11] = blockers of CAL PDZ–TMR peptide complex – biochemical, fluorescence polarization, untagged CAL PDZ, cherry-pick, set 2, dose response (AID 602254); type: functional

Structure (SMILES): Cc1nnc(N/N=C/c2ccc(-c3ccc(Br)cc3)o2)n1N
- IC50 (cells): 9.58 µM (active)
- AC50 [1]: 127 µM (active)

Structure (SMILES): Cc1ccc(-c2nn(-c3ccccc3)cc2NC(=O)CCl)cc1
- IC50 (Melanocortin receptor 4): > 7.18 µM (active)
- IC50 [2]: > 64.6 µM (inactive)

Structure (SMILES): COc1ccc(C(=O)Nc2ccc(/C(C)=N/NC(=O)c3ccncc3)cc2)cc1
- IC50 (Beta Lactamase): > 59.6 µM (inactive)
- IC50 (Beta-lactamase [3]): 10.9 µM (inactive)
- IC50 (Beta-lactamase [4]): > 59.6 µM (inactive)
- IC50 [5]: 43 µM (active)
- IC50 [6]: > 100 µM (inactive)
- IC50 (Prothrombin): > 100 µM (inactive)
- IC50 [7]: > 80 µM (inactive)
- IC50 [8]: 8.92 µM (active)

Structure (SMILES): O=C(c1ccco1)N1CCN(c2c3c(nc4cc(-c5cccc(F)c5)nn24)CCC3)CC1
- EC50 [9]: 7.76 µM (active)
- EC50 [10]: 6.31 µM (active)

Structure (SMILES): Cc1ccc(-c2nc(C)sc2CC(=O)OCC(=O)Nc2ccc(F)c(Cl)c2)cc1
- AC50 [11]: 110 µM (active)
